# Measurements from patent US20220169639A1 (priority 2018, published 2022).
# What was measured:
# [1] = system: HBeAg (surrogate marker for cccDNA) in HepDES19 cells; assay: Engineered HepDES19 primary screen assay (HBeAg ELISA); format: cell-based, HBV; details: Hepatitis B virus, 120 h, HBeAg in culture supernatant, 5 days incubation, read-out: IC50 (HepDES19 primary screen assay, inhibition of extracellular HBeAg level)
# Procedure, shortened: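 HepDES19 cells pre-induced by Tet withdrawal for 8 days, frozen, then seeded and dosed after 24 h with half-log compound dilutions (1% DMSO final). After 5 days at 37 °C, HBeAg measured by ELISA and viability by CCK-8; IC50 from 4-parameter logistic fit.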
# [2] = system: HBV (HBsAg) in HBV-infected PHH; assay: Cryopreserved primary human hepatocytes (PHH) HBV infection assay, extracellular HBsAg (CLIA); format: cell-based; details: Hepatitis B virus, Hepatocyte, 216 h, read-out: HBsAg IC50
# Description: This assay is used to confirm the anti-HBV effect of the compounds in HBV PHH infection assay. Cryopreserved PHH (BioreclamationIVT, Lot YJM) was thawed at 37° C. and gently transferred into pre-warmed InVitroGRO HT medium (BioreclamationIVT, Cat. S03317). The mixture was centrifuged at 70 relative centrifugal force (RCF) for 3 minutes at RT, and the supernatant was discarded. Pre-warmed InVitroGRO CP medium (BioreclamationIVT, Cat #S03316) was added to the cell pellet to gently re-suspend cells. The cells were seeded at the density of 5.8×10^4 cells per well to collagen I coated 96-well plate (Gibco, Cat. A1142803) with the InVitroGRO CP medium. All plates were incubated at 37° C. with 5% CO2 and 85% humidity.
# At 20 hours after plating, the medium was changed to PHH culture medium (Dulbecco's Modified Eagle Medium (DMEM)/F12 (1:1) (Gibco, Cat. 11320-033), 10% fetal bovine serum (Gibco Cat. 10099141), 100 U/mL penicillin, 100 μg/mL streptomycin (Gibco, Cat. 151401-122), 5 ng/mL human epidermal growth factor (Invitrogen Cat. PHG0311L), 20 ng/mL dexamethasone (Sigma, Cat. D4902) and 250 ng/mL human recombinant insulin (Gibco, Cat. 12585-014)). And the cells were incubated at 37° C. with 5% CO2 and 85% humidity for 4 hours. The medium was then changed to pre-warmed PHH culture medium containing 4% polyethylene glycol (PEG) MW8000 (Sigma, Cat. P1458-50ML) and 1% DMSO (Sigma, Cat. D2650). 5.8×10^6 genomic equivalents of HBV were added into the medium.
# At 24 hours post-infection, the cells were gently washed with PBS and refreshed with PHH culture medium supplemented with 1% DMSO, and 0.25 mg/mL Matrix gel (Corning, Cat. 356237) at 200 μL per well. All plates were immediately placed in at 37° C. CO2 incubator. 24 hours later, serial dilutions of compounds made with DMSO were further diluted with the same culture medium (PHH culture medium supplemented with 1% DMSO and 0.25 mg/mL Matrix gel as described above) before they were added to the cells to reach desired final compound concentrations and 1% DMSO concentration. The medium containing the compounds were refreshed every three days.
# At 9 days post-compound treatment, extracellular HBsAg level were measured with Chemiluminescence Immuno Assay (CLIA) kit (Autobio, HBsAg Quantitative CLIA). Extracellular HBV DNA was extracted by MagNA Pure 96 system (Roche) and then determined
# HBsAg IC50 and HBV DNA IC50 values were derived from the dose-response curve using 4 parameter logistic curve fit method. The compounds of formula (I) have HBsAg IC50<20 μM, particularly <1 μM; and HBV DNA IC50<50 μM. Results of Cryopreserved PHH assay are given in TableBIO2.
SMILES,IC50 [1],IC50 [2]
"O=C(O)[C@@H]1CCN(CCCOc2cc(Br)ccc2-c2cc(=O)c3cccc(Cl)c3o2)C1 [Example 005, (3R)-1-[3-[5-bromo-2-(8-chloro-4-oxo-chromen-2-yl)phenoxy]propyl]pyrrolidine-3-carboxylic acid]",8.93 µM,8.34 µM
"O=C(O)C1CC(NCCCOc2cc(C(F)(F)F)ccc2-c2cc(=O)c3cccc(Cl)c3o2)C1 (stereo not drawn) [Example 006, 3-[3-[2-(8-chloro-4-oxo-chromen-2-yl)-5-(trifluoromethyl)phenoxy]propylamino]cyclobutanecarboxylic acid]",4.68 µM,3.82 µM
COc1cc(Cl)c2oc(-c3ccc(C(F)(F)F)cc3OCCCNC(=O)C(=O)O)cc(=O)c2c1 [Example 116],1.8 µM,3.41 µM
"O=c1cc(-c2ccc(C(F)(F)F)cc2OCCCN2C[C@@H](O)[C@@H](O)C2)oc2c(Cl)cccc12 [Example 077, 8-chloro-2-[2-[3-[(3R,4S)-3,4-dihydroxypyrrolidin-1-yl]propoxy]-4-(trifluoromethyl)phenyl]chromen-4-one]",0.05 µM,2.18 µM
"CCOC(=O)C(=O)NCCOc1cc(C(F)(F)F)ccc1-c1cc(=O)c2cccc(Cl)c2o1 [Example 101, ethyl 2-[2-[2-(8-chloro-4-oxo-chromen-2-yl)-5-(trifluoromethyl)phenoxy]ethylamino]-2-oxo-acetate]",1.08 µM,1.41 µM
"O=C(O)[C@@H]1CCN(CCOc2cc(Br)ccc2-c2cc(=O)c3c(C(F)(F)F)ccc(Cl)c3o2)C1 [Example 041, (3R)-1-[2-[5-bromo-2-[8-chloro-4-oxo-5-(trifluoromethyl)chromen-2-yl]phenoxy]ethyl]pyrrolidine-3-carboxylic acid]",0.03 µM,5.48 µM
"O=C(O)C1CN(CCOCCOc2cc(Br)ccc2-c2cc(=O)c3cccc(Cl)c3o2)CCO1 (stereo not drawn) [Example 049, 4-[2-[2-[5-bromo-2-(8-chloro-4-oxo-chromen-2-yl)phenoxy]ethoxy]ethyl]morpholine-2-carboxylic acid]",2.81 µM,7.81 µM
"CCOc1ccc(-c2cc(=O)c3cccc(Cl)c3o2)c(OCCCN2CC[C@H](C(=O)O)C2)c1 [Example 015, (3S)-1-[3-[2-(8-chloro-4-oxo-chromen-2-yl)-5-ethoxy-phenoxy]propyl]pyrrolidine-3-carboxylic acid]",7.85 µM,9.75 µM
"O=C(O)C1CCN(CCOc2cc(Br)ccc2-c2cc(=O)c3cccc(Cl)c3o2)CC1 [Example 022, 1-[2-[5-bromo-2-(8-chloro-4-oxo-chromen-2-yl)phenoxy]ethyl]piperidine-4-carboxylic acid]",1.31 µM,6.8 µM
O=C(O)C(=O)NC1CC(Oc2cc(C(F)(F)F)ccc2-c2cc(=O)c3cccc(Cl)c3o2)C1 (stereo not drawn) [Example 133],4.57 µM,2.8 µM
O=c1cc(-c2ccc(Br)cc2OCCN2CCC(c3nnn[nH]3)CC2)oc2c(Cl)cccc12 [Example 087],5.24 µM,7.84 µM
"NC(=O)C(=O)NCCOc1cc(C(F)(F)F)ccc1-c1cc(=O)c2cccc(Cl)c2o1 [Example 146, N′-[2-[2-(8-chloro-4-oxo-chromen-2-yl)-5-(trifluoromethyl)phenoxy]ethyl]oxamide]",0.33 µM,7.08 µM
